Legend:
Type in all cases: functional
Saccharomyces cerevisiae [1] = assay: DNA damaging activity against wild type yeast assessed as drug level required to produce 12 mm zone of inhibition assessed per 100 uL
Saccharomyces cerevisiae [2] = assay: DNA damaging activity against DNA repair-deficient delta RAD52 mutant yeast assessed as drug level required to produce 12 mm zone of inhibition assessed per 100 uL
Saccharomyces cerevisiae [3] = assay: DNA damaging activity against DNA repair-deficient delta RAD52/delta TOP1 mutant yeast assessed as drug level required to produce 12 mm zone of inhibition assessed per 100 uL

## CC(C)[C@@H]1C[C@@H]2C(C)(NC(=O)NCCc3ccccc3)[C@H]3C[C@@H]1C[C@]2(C)C3 (stereo partly specified)
Saccharomyces cerevisiae [1]
  IC12: 14 µg
Saccharomyces cerevisiae [2]
  IC12: 45 µg
Saccharomyces cerevisiae [3]
  IC12: 12 µg

## CC(C)[C@@H]1C[C@@H]2C(C)(NC=O)[C@H]3C[C@@H]1C[C@]2(C)C3 (stereo partly specified)
Saccharomyces cerevisiae [1]
  IC12: 31 µg
Saccharomyces cerevisiae [2]
  IC12: 51 µg
Saccharomyces cerevisiae [3]
  IC12: 4.8 µg

Source: ChEMBL document CHEMBL1145718, “Two new nitrogenous sesquiterpenes from the sponge Axinyssa aplysinoides” (1997)
